System: calpain
Test: immunoblot of calcium-induced calpain-mediated spectrin breakdown product
Type: biochemical, Rattus norvegicus

Work on CCOC(=O)[C@H]1O[C@@H]1C(=O)N[C@@H](CC(C)C)C(=O)NCCC(C)C [E64d, 2S,3S-trans-epoxysuccinyl-L-leucylamido-3-methylbutane ethyl ester] yielded an IC50 of 3 to 6 µM.

— paper PMC5967645 (European scientific journal, 2017)
